Laboratory results taken from patent US6673839B1, “Pharmaceutical compositions with antitumour activity” (Universita' Degli Studi di Catania, priority 1998, dated 2004).
Where a name gives a salt, the structure may show the parent alone.

Legend:
[1] = system: Cells from Nasopharynx Carcinoma Explant; assay: In vitro short-term chemosensitivity assay (MTT); type: cell-based, human; conditions: Table 1, 24 h
Experimental: The effects of L-aC on cells from 4 primitive epidermoid carcinomas of the larynx and 1 primitive undifferentiated carcinoma of the nasopharynx were tested.
Tissue fragments from the tumour mass were mechanically dissociated in Hank's solutions adding an antibiotic and an antifungal to obtain a cell monosuspension free of agglomerates. The resulting suspension was centrifuged at 1200 rpm for 5 minutes and the pellet was resuspended in MEM culture medium supplemented with 10% of patient serum, to obtain a concentration of 10^5 cells/ml. Subsequently, 180 μl of the resulting suspension were dispensed in microplate wells and incubated under 5% CO2 atmosphere at 37° C. for 3 days. After that, the antitumor medicaments were added in the amount of 20 μl for each well, at a concentration of 0.1×, 1× and 10× the maximum serum concentrations that can usually be reached in clinical practice. 24 h after the beginning of the exposure to the antitumour medicament, 100 μl of MTT were added, and after 4 h, a further 150 μl of dimethylsulfoxide were added.
The optical density was evaluated by a Uniscan microspectrophotometer with a […] wavelength filter. Cytotoxicity was evaluated as percentage of the optical density of the treated sample compared with the optical density of the control.
Bleomycin (BLEC), […] (CDDP), 5-fluoruracil (5-FU), vincristine (VCR), epidoxorubicin (Epi-Dx) and methotrexate (MTX) were tested for comparison purposes.
L-aC was tested at the following concentrations: 0.2-2-20 mg/ml.
In vitro short-term chemosensitivity assay (according to Hill and coll.)
(Cell Vitality Percentage After Exposure to the Antitumoral)—Raw Data
(Cells from Nasopharynx Carcinoma Explant)

[2] = system: prostate (Du 145) adenocarcinoma cell line; assay: Methylene blue assay on stabilized human neoplastic cell lines; type: cell-based; conditions: prostate carcinoma line
Experimental: (§1) The effects of L-aC on stabilized human neoplastic cell lines were tested using the methylene blue assay.
(§2) Acute promyelocytic leukemia cell line (HL60) and prostate (Du 145), colon (HT 29) and breast (MCF 7) adenocarcinoma cell lines have been used.
(§3) Cell suspensions at concentrations of 10^5 cells/ml were prepared.
(§4) 100 μl of the obtained cell suspension were inoculated on 96 well plates and incubated at 37° for 12 hours, to obtain cell adhesion to the plates. After 12 hours, L-aC was added at the concentrations of 0.2 mg/ml, 2 mg/ml, 20 mg/ml. After 72 hours, the culture medium was removed and 100 μl of 100% ethanol were added for 30 min. Subsequently ethanol was removed and 1% methylene-blue was added for 2 hours. The dye was then removed and the plates were dried before adding 1M HCl.
(§5) The cytotoxicity percentage was calculated using the following formula:
(§6) (1−[O^D treated cells/O^D control cells)×100.
(§7) The optical density was evaluated by Uniskan micro-spectrophotometer with 630 nmwavelength filter.

[3] = system: Acute promyelocytic leukemia cell line (HL60); assay: as above; type: cell-based
Experimental: as §1, §2, §3, §4, §5, §6, §7

[4] = system: colon (HT 29) adenocarcinoma cell line; assay: as above; type: cell-based
Experimental: as §1, §2, §3
as §4, with “After 72 hours, the culture medium was removed and 100 μl of 100% ethanol were added for 30 min.” left out
as §5, §6, §7
(§8) The induction of apoptosis (appraised by Giemsa staining) was remarkable mainly on stabilized human neoplastic cell lines from breast and colon carcinomas.

[5] = system: breast (MCF 7) adenocarcinoma cell line; assay: as above; type: cell-based
Experimental: as §1, §2, §3
as §4, with “After 72 hours, the culture medium was removed and 100 μl of 100% ethanol were added for 30 min.” left out
as §5, §6, §7, §8

[6] = system: tumour cells from lymph nodes; assay: Effects of L-aC on cell cycle of cultured secondary human tumour cells; type: cell-based; conditions: 20 mg/ml
Experimental: L-aC was tested on tumour cells from lymph nodes taken from the same patients from which the primitive neoplasms had been taken.

[7] = 20 mg/ml, 48 hours after exposure

CC(=O)OC(CC(=O)[O-])C[N+](C)(C)C [L-aC, L-acetylcarnitine hydrochloride]
Cell Vitality Percentage After Exposure ([1]; 0.1x maximum clinical serum concentration (L-aC tested at 0.2-2-20 mg/ml)): 58%
Cell Vitality Percentage After Exposure ([1]; 1x maximum clinical serum concentration): 4.8%
Cell Vitality Percentage After Exposure ([1]; 10x maximum clinical serum concentration): 4%
cytotoxicity [2]: 58%
cytotoxicity [3]: 52%
cytotoxicity (percentage of dead cells) [4, 7]: 63%
induction of apoptosis (Giemsa staining) ([4]; colon carcinoma line): remarkable
cytotoxicity (percentage of dead cells) [5, 7]: 68%
induction of apoptosis (Giemsa staining) ([5]; breast carcinoma line): remarkable
activity versus that on cells from the primitive tumours ([6]; all samples): comparable
G1/S+G2M ratio after treatment ([6]; tumour with pre-treatment ratio 20/80): 74/26
